Experiments:
[1] = test system: T-cell lymphomas; details: phase II trial (Piekarz et al., 2001); cited from earlier work
[2] = test system: inflammatory cytokines; assay: Semiquantitative RT-PCR of cytokine mRNA, PMA/Ion stimulated peripheral blood lymphocytes; type: cell-based, human; details: for cytokine expression (mRNA): PMA/Ion stimulation, FIG. 13 A and B
Experimental: (§1) Monocyte and macrophage depleted peripheral blood mononuclear cells were obtained from consenting adults via separation using Ficoll-Hypaque. The peripheral blood mononuclear cells (PBMC) fraction was washed and seeded in 9 cm petri dishes. After an incubation of 2 hours at 37° C. to remove most of the monocytes, macrophages, and B-cells, the non-adherent cells were collected and cultured in 175 cm^2 flasks for 2 days. Cells were harvested and adjusted to 3 million cells per ml. Aliquots of 500 μl were transferred to each well of 24-well flat bottom plates. Peripheral blood lymphocytes (PBL's) were treated with various concentrations of HDAC inhibitors as indicated. After a 2 hours incubation time at 37° C. cells were stimulated with phorbol 12-myristate 13-acetate (PMA)/ionomycin (Ion) or activated via T cell receptor (TCR/CD3) complex with 10 μg/ml anti-CD3 mAb (OKT3) and 2.5 μg/ml anti-CD28 mAb. After 24 hours at 37° C. the supernatant was removed and frozen for cytokine assays. Cell pellets were lysed and total RNA was isolated using the RNeasy mini kit from Qiagen.
(§2) One microgram of total RNA was transcribed to cDNA by standard methods using reverse transcriptase and an oligo-dT primer (Invitrogen). For semiquantitative PCR, 2 μl of cDNA was amplified by PCR using specific primers. Primers for PCR were synthesized by MWG and are as follows: […]

[3] = test system: stage III/IV non-small cell lung cancer; details: monotherapy, phase II (Keer et al., 2002); cited from earlier work
[4] = test system: IL-2 and TNF-α; assay: IL-2 and TNF-α ELISA, supernatants of stimulated peripheral blood lymphocytes; type: cell-based, human; details: PBLs, FIG. 15; for concentration at which inhibition of IL-2 and TNF-α expression was maximal: CD3/CD28; for IL-2 secretion, dose-response / TNF-α secretion, dose-response: increasing concentrations two hours, CD3 and CD28 mAbs 24 hours
Experimental: as §1
To perform ELISAs, supernatants of treated and untreated PBL's were collected and IL-2 as well as TNF-α were measured using the Duo Set ELISA Development System (R&D Systems) as described by the manufacturer.

[5] = test system: Basal Cell Carcinoma; details: Tazarotene used alone; cited from earlier work
[6] = test system: HaCaT cells; assay: Apoptosis assay, flow cytometry of Sub-G1 DNA containing cells; type: cell-based, human; details: drugs day 1, assay day 2, combinations VPA 1 mM + Tazarotene 1 or 2 μM, FIG. 5
Experimental: Apoptosis assays: Apoptosis was measured by a Beckton Dickinson FACScalibur flow cytometer by analysing the percentage of Sub-G1 DNA containing cells. 10000 events were recorded for each sample. The amplification scale was linear for all parameters. Photomultiplier tension was set as to place the peak DNA content corresponding cells in G0/G1 at channel 300 in the FL2-H vs SCC—H graphs. Cells showing a less than peak DNA content (hypodiploid cells) and high SSC—H (granular high condensed cells) were regarded as apoptotic. The experiments were repeated three times in duplicate. Error bars represent 1 standard deviation.
Cells were plated in 35 mm diameter wells on day 0. Drugs were added on day 1. The apoptosis assay was carried out on day 2. […] Thus, the combinatorial activity of these two drugs must be explained via synergistic activity of this treatment.

[7] = test system: HaCaT cells; assay: MTT assay, growth of human immortalized keratinocytes; type: cell-based
Experimental: MTT assay: This calorimetric assay detects the formation of formazan which is proportional to the number of cells present. Tissue culture medium containing drugs was removed and 200 μl of DME containing 2 mg/ml MTT ((3-4, 5-dimethyl thiazol-2yl) 2,5-diphenyltetrazolium bromide) was added to each well. 96-well plates were incubated at 37 ° C., and 10% CO2 for 30 minutes. Medium containing MTT was then removed and the cells were washed once with PBS. Following removal of the PBS, 200 μL DMSO was added to each well and plates were placed on a rotating platform shaker for 5 minutes. Results were obtained by reading the absorbance at a wavelength of 550 nm using a spectrophotometer. Results are expressed as percentages setting the control as 100%.
FIG. 1 graphically depicts the results of growth assays performed on human immortalized keratinocytes (HaCaT cells), treated for three days with the indicated compounds. Drugs were added on the same day of plating (day 0). The MTT assay (to measure cell proliferation) was carried out on day 3. Various combinations of the drugs were used in the growth assays.
Cells were plated in wells on day 0. […] The MTT assay was carried out on day 3. Various combinations of the drugs were also used in the growth assays. […] Thus, the combinatorial activity of these two drugs must be explained via synergistic activity of this treatment.
Drugs were added on the same day of plating (day 0). The MTT assay (to measure cell proliferation) was carried out on the third day. […] Thus, this combinatorial activity of these two drugs must be explained via synergistic activity of this treatment.

[8] = test system: Basal Cell Carcinoma; assay: Topical treatment of BCC patients with Tazarotene and VPA; type: in vivo, human; details: 4 lesions pre-treated with Tazarotene alone for at least 16-20 weeks
Experimental: 10 lesions were treated: 8 Superficial BCCs and 2 pigmented BCC. […] Lesions were evaluated clinically and photographed every two weeks.

[9] = test system: acute promyelocytic leukemia; details: one PML-RAR patient with multiple relapses after retinoic acid (Warrell et al., 1998); cited from earlier work
[10] = test system: inflammatory cytokines; assay: Semiquantitative RT-PCR of cytokine mRNA, LPS stimulated keratinocytes; type: cell-based, human; details: HaCaT, 200 nM TSA or 5 mM VPA 4 hours, then LPS 100 ng/ml 24 hours, FIG. 12A
Experimental: Human immortalized keratinocytes (HaCaT cells) were seeded at a density of 2.5 million cells per ml into 75 cm^2 flasks. […] After 24 hours at 37° C. cells were lysed and total RNA was isolated using the RNeasy mini kit from Qiagen.
as §2

[11] = test system: F9 cells; details: cited from earlier work
[12] = test system: PPARδ; details: cited from earlier work
[13] = PBLs preincubated 2 hours, PMA/Ion 24 hours, FIGS. 12B, 13
[14] = vs untreated stimulated control

C/C=C1\NC(=O)[C@H]2CSSCC/C=C/[C@H](CC(=O)N[C@H](C(C)C)C(=O)N2)OC(=O)[C@H](C(C)C)NC1=O [depsipeptide]
clinical outcome [1]: used successfully

O=C(CCCCCCC(=O)Nc1ccccc1)NO [SAHA, suberoylanilide hydroxamic acid]
cytokine expression (mRNA) [2]: can modulate cytokine expression

CCCC(=O)OCOC(=O)C(C)(C)C [Pivanex, Pivaloyloxymethyl butyrate]
clinical activity [3]: demonstrating activity

O=C(CCC1CCCCC1)NO [G2M-702]
cytokine expression (mRNA) [2]: can modulate cytokine expression | concentration at which inhibition of IL-2 and TNF-α expression was maximal [4]: 3 µM | IL-2 secretion, dose-response [4]: dose-dependent inhibition | TNF-α secretion, dose-response [4]: dose-dependent inhibition

CCOC(=O)c1ccc(C#Cc2ccc3c(c2)C(C)(C)CCS3)nc1 [Tazarotene]
share of BCC's in which regression is induced [5]: ~50% | side effects (such as pain and itching) [5]: several unwanted side effects | time to regression [5]: 12-24 weeks | apoptosis (Sub-G1 DNA containing cells) [6]: induces apoptosis | cell growth (MTT assay) ([7]; treated three days, MTT on day 3, combinations VPA 1 mM + Tazarotene 1 or 2 μM, FIG. 1): inhibited cell growth | tumor diameter under Tazarotene alone [8]: no reduction of tumor diameter

phenylbutyrate
clinical outcome of leukemia [9]: complete remission of the leukemia

O=c1[nH]cc(F)c(=O)[nH]1 [5-FU, 5-Fluorouracil]
cell growth (MTT assay) ([7]; MTT on the third day, 5 μM or 10 μM 5-FU and 1 mM VPA, FIG. 3): inhibited growth

CC(/C=C/C(=O)NO)=C\[C@@H](C)C(=O)c1ccc(N(C)C)cc1 [TSA, trichostatin A]
IL-4 mRNA transcripts [2, 13]: significantly reduced | IL-6 mRNA transcripts [2, 13]: only moderate effects | IFN-γ mRNA transcript [10]: virtually unaffected | IL-6 mRNA level [10, 14]: significant decrease | TNF-α mRNA level [10, 14]: significant decrease | F9 cell differentiation [11]: induces the same type of F9 cell differentiation as VPA | PPARδ activation [12]: activates

O=C(/C=C/C1CCCCC1)NO [G2M-707]
cytokine expression (mRNA) [2]: can modulate cytokine expression | concentration at which inhibition of IL-2 and TNF-α expression was maximal [4]: 1 µM | IL-2 secretion, dose-response [4]: dose-dependent inhibition | TNF-α secretion, dose-response [4]: dose-dependent inhibition

O=C(CCC1CCCC1)NO [G2M-701]
cytokine expression (mRNA) [2]: can modulate cytokine expression | concentration at which inhibition of IL-2 and TNF-α expression was maximal [4]: 6 µM | IL-2 secretion, dose-response [4]: dose-dependent inhibition | TNF-α secretion, dose-response [4]: dose-dependent inhibition

Source: patent US20060160897A1, “Topical Use of Valproic Acid for the Prevention or Treatment of Skin Disorders” (priority 2003, published 2006)
